Tests used:
Test in all cases: Kinase panel enzymatic inhibition assay (Nanosyn)
Format in all cases: biochemical
Settings in all cases: compound 5 μM; ATP at Km; 30-minute pre-incubation
CSF1R = biological target: T1, CSF1R (Homo sapiens, UniProt P07333)
T1 construct: purchased Nanosyn (contract screening)
In short: (§1)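 Single-point screen: compound 5 μM, ATP at Km per kinase, 30 min pre-incubation. Readout by mobility shift (Caliper LabChip), ADP detection or TR-fluorescence. Reported as % inhibition or IC50.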

RET = biological target: T2, RET (Homo sapiens, UniProt P07949)
T2 construct: Nanosyn (contract laboratory that ran the panel)
T2 sequence (P07949 29-1114): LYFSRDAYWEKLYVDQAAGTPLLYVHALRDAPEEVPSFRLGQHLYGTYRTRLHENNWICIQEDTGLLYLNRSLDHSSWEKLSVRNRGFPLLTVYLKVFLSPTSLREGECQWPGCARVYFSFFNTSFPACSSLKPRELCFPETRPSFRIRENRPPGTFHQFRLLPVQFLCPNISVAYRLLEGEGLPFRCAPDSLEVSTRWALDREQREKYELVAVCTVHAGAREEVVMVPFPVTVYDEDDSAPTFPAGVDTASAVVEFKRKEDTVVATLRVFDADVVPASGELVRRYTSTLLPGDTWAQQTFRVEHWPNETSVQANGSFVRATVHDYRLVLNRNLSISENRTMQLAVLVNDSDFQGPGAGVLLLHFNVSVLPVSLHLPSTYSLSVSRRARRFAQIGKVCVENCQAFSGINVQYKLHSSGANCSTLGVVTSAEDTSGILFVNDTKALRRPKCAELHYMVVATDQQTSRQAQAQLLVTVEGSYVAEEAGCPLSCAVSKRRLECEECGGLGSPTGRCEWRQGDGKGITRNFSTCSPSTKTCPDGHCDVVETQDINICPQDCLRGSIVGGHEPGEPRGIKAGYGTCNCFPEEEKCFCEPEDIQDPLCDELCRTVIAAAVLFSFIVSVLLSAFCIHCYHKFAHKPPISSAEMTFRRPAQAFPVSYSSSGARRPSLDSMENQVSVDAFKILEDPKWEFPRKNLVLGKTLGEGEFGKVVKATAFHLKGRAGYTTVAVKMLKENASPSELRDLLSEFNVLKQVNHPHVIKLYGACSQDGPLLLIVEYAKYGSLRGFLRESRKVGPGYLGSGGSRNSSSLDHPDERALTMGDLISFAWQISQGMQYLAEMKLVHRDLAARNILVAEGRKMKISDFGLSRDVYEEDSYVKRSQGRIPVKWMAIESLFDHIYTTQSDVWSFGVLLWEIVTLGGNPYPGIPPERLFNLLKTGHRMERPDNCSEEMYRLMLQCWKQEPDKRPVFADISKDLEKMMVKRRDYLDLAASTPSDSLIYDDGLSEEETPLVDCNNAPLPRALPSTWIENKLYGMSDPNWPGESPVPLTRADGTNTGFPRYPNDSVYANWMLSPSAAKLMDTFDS
In short: as §1

ERBB4 = biological target: T3, ERBB4 (Homo sapiens, UniProt Q15303)
T3 construct: purchased Nanosyn (contract screening)
In short: as §1

CSK = biological target: T4, CSK (Homo sapiens, UniProt P41240)
T4 construct: purchased Nanosyn (contract screening)
In short: as §1

BRK = biological target: T5, BRK (Homo sapiens, UniProt Q13882)
T5 construct: purchased Nanosyn (contract screening)
In short: as §1

YES = biological target: T6, YES (Homo sapiens, UniProt P07947)
T6 construct: Nanosyn (contract laboratory that ran the panel)
In short: as §1

ARAF = biological target: T7, ARAF (Homo sapiens, UniProt P10398)
T7 construct: purchased Nanosyn (contract screening)
T7 sequence (P10398 1-606): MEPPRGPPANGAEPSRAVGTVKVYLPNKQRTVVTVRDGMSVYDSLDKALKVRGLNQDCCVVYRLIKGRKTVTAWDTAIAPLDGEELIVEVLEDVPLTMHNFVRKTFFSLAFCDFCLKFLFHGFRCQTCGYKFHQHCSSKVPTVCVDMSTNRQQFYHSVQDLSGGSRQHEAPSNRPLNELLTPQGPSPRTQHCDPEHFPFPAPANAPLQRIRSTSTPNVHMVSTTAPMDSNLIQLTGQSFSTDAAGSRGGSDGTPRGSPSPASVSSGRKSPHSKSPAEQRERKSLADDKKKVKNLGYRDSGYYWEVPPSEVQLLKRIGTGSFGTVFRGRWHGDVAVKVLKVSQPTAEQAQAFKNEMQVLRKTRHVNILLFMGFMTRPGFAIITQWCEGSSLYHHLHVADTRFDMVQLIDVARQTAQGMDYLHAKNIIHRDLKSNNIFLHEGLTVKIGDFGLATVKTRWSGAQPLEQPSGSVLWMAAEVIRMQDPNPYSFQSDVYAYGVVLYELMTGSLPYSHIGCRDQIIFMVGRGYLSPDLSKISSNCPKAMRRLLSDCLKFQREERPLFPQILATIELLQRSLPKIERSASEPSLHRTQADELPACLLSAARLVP
In short: as §1

CRAF = biological target: T8, CRAF (Homo sapiens, UniProt P04049)
T8 construct: purchased Nanosyn (contract screening)
T8 sequence (P04049 whole entry): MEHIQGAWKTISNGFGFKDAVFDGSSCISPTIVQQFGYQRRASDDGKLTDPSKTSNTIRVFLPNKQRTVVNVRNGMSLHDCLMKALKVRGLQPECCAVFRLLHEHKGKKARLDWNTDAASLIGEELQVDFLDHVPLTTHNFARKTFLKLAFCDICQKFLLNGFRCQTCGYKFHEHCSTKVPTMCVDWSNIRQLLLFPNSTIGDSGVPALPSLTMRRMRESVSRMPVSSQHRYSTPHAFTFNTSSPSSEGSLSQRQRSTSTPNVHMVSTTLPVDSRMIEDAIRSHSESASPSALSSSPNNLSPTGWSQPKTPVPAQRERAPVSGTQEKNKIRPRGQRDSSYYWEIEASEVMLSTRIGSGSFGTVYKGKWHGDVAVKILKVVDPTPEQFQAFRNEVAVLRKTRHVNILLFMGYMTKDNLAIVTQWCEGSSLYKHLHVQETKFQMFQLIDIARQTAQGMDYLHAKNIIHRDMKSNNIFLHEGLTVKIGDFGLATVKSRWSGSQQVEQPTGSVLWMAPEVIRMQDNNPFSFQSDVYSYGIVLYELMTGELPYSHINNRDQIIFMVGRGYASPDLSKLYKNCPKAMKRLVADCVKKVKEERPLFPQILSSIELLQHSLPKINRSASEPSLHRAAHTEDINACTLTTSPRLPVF
In short: as §1

KIT = biological target: T9, KIT (Homo sapiens, UniProt P10721)
T9 construct: purchased Nanosyn (contract screening)
T9 sequence (P10721 26-976): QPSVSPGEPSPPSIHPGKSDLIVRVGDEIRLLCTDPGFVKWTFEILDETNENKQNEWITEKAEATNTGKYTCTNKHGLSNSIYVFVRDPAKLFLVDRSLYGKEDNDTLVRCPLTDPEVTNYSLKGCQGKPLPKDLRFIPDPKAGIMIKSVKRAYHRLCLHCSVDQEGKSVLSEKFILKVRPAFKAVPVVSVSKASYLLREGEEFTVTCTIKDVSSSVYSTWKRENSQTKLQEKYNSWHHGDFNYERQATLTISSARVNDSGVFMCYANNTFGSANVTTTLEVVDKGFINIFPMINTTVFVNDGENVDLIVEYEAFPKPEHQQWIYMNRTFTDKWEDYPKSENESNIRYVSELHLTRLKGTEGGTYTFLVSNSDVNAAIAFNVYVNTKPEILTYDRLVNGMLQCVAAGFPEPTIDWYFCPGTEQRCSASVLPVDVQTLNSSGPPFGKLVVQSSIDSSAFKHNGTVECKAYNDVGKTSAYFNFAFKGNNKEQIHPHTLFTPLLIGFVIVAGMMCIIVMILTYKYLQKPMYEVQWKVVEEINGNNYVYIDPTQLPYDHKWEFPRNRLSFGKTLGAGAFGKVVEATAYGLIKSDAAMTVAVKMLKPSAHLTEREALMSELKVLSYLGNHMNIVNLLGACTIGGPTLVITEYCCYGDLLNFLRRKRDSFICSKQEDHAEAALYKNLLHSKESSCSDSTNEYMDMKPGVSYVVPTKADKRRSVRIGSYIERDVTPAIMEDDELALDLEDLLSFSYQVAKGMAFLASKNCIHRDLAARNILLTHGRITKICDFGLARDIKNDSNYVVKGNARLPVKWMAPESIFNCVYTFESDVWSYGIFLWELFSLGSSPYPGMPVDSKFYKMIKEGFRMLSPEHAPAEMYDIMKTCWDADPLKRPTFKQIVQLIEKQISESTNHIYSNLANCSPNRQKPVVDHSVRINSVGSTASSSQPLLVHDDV
In short: as §1

DDR2 = biological target: T10, DDR2 (Homo sapiens, UniProt Q16832)
T10 construct: purchased Nanosyn (contract screening)
T10 sequence (Q16832 22-855): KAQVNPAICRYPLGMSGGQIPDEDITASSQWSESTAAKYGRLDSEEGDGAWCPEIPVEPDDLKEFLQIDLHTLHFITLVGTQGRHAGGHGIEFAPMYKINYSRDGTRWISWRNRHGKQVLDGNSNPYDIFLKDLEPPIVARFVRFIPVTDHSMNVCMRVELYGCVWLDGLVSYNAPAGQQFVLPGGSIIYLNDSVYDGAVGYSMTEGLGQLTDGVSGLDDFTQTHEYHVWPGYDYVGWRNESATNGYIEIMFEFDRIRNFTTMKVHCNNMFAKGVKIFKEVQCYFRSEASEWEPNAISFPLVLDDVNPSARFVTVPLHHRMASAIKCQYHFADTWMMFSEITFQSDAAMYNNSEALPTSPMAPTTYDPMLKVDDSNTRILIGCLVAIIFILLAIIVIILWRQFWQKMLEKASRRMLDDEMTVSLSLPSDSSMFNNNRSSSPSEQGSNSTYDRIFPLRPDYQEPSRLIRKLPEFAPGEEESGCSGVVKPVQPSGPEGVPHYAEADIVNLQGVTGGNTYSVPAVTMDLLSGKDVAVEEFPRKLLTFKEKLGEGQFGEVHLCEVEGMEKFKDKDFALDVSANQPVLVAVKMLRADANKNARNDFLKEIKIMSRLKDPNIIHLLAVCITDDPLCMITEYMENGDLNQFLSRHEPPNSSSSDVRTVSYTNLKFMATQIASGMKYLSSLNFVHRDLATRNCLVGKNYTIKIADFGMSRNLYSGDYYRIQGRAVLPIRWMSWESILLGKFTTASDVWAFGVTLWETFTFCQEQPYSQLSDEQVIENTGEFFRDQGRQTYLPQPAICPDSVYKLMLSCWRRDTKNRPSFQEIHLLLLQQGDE
In short: as §1

PKCb1 = biological target: T11, PKCb1 (Homo sapiens, UniProt P05771)
T11 construct: Nanosyn (contract laboratory that ran the panel)
T11 sequence (P05771 whole entry): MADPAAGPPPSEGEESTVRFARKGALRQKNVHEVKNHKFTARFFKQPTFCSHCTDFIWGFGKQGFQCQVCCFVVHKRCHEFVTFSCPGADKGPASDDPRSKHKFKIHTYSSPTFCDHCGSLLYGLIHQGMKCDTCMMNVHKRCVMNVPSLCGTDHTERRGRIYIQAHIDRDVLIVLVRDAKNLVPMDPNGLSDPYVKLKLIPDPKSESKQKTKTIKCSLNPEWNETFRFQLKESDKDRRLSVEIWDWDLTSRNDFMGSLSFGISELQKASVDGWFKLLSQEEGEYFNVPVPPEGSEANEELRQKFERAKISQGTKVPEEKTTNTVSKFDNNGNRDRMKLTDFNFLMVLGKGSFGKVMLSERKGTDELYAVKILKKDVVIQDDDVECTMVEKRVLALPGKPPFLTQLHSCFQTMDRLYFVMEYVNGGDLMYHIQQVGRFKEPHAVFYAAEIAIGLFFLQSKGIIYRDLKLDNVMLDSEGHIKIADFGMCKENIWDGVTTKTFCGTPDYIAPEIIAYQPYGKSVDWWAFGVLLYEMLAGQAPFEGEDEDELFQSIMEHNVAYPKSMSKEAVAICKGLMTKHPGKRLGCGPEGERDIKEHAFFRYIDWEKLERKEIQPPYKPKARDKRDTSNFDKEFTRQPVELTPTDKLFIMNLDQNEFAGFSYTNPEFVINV
In short: as §1

LYNa = biological target: T12, LYNa (Homo sapiens, UniProt P07948)
T12 construct: purchased Nanosyn (contract screening)
T12 sequence (P07948 whole entry): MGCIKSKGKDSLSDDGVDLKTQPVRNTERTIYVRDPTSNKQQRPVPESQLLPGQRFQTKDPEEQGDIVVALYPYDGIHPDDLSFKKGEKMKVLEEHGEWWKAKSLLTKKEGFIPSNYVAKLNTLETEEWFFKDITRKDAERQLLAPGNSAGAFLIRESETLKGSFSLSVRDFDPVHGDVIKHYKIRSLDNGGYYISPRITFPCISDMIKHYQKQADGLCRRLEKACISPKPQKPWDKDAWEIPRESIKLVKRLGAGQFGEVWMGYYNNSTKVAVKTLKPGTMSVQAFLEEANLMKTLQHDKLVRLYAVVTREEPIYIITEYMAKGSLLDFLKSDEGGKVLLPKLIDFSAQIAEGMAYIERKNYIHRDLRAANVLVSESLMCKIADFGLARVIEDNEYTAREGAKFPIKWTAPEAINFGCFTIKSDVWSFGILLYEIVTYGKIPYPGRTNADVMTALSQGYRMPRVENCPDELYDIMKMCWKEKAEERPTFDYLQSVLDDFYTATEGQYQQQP
In short: as §1

LYNb = biological target: T13, LYNb (Homo sapiens, UniProt P07948)
T13 construct: purchased Nanosyn (contract screening)
In short: as §1

T1 sequence (P07333 20-972): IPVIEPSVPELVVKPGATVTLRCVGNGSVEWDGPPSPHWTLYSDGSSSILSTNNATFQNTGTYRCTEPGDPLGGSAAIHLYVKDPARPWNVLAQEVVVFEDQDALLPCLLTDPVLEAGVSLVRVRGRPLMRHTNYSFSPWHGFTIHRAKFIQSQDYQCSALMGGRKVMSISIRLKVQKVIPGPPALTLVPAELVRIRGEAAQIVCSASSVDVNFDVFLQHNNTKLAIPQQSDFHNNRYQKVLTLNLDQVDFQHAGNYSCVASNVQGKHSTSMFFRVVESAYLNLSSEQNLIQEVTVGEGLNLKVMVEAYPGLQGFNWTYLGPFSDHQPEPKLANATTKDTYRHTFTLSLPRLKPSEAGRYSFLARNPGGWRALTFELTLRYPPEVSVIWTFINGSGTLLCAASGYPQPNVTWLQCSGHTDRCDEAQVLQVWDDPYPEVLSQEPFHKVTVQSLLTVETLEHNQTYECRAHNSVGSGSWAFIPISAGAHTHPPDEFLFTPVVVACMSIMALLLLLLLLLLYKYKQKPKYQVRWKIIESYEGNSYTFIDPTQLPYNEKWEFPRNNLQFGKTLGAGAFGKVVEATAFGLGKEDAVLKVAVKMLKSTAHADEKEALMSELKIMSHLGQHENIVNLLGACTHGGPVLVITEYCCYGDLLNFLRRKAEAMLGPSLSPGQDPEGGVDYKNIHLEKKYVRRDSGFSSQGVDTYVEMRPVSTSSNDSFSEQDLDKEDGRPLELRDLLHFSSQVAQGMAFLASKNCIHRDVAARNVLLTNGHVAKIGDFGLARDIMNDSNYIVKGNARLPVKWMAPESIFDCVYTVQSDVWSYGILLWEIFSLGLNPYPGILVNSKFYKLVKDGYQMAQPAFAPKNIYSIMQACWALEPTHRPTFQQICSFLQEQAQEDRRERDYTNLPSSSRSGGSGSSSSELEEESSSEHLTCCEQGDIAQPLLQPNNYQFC

Row | inhibition at 5 µM (CSF1R) [%] | inhibition at 5 µM (RET) [%] | inhibition at 5 µM (ERBB4) [%] | inhibition at 5 µM (CSK) [%] | inhibition at 5 µM (BRK) [%] | inhibition at 5 µM (YES) [%] | inhibition at 5 µM (ARAF) [%] | inhibition at 5 µM (CRAF) [%] | inhibition at 5 µM (KIT) [%] | inhibition at 5 µM (DDR2) [%] | inhibition at 5 µM (PKCb1) [%] | inhibition at 5 µM (LYNa) [%] | inhibition at 5 µM (LYNb) [%] | Structure (SMILES)
1 | < 79 | < 79 | < 79 | < 79 | < 79 | < 79 | ≥ 95 | ≥ 95 | < 79 | < 79 | < 79 | < 79 | < 79 | Cc1ccc(NC(=O)c2cc(S(C)(=O)=O)n(-c3ccc(F)cc3)n2)cc1-c1cc(N2CCOCC2)c(=O)n(C)c1 [Ex12, 1-(4-fluorophenyl)-N-(4-methyl-3-(1-methyl-5-morpholino-6-oxo-1,6-dihydropyridin-3-yl)phenyl)-5-(methylsulfonyl)-1H-pyrazole-3-carboxamide]
2 | ≥ 95 | < 79 | 80 to 89 | < 79 | < 79 | < 79 | ≥ 95 | < 79 | ≥ 95 | ≥ 95 | < 79 | ≥ 95 | ≥ 95 | Cc1ccc(NC(=O)c2cc(S(C)(=O)=O)n(-c3ccc(F)cc3)n2)cc1Nc1nccc(-c2cccnc2N)n1 [Ex13, N-(3-((4-(2-aminopyridin-3-yl)pyrimidin-2-yl)amino)-4-methylphenyl)-1-(4-fluorophenyl)-5-(methylsulfonyl)-1H-pyrazole-3-carboxamide]
3 | 90 to 94 | 80 to 89 | < 79 | 80 to 89 | < 79 | < 79 | ≥ 95 | ≥ 95 | 90 to 94 | ≥ 95 | < 79 | ≥ 95 | ≥ 95 | Cc1ccc(NC(=O)c2cc(S(C)(=O)=O)n(-c3ccc(F)cc3)n2)cc1C#Cc1cnc2cccnn12 [Ex14, 1-(4-fluorophenyl)-N-(3-(imidazo[1,2-b]pyridazin-3-ylethynyl)-4-methylphenyl)-5-(methylsulfonyl)-1H-pyrazole-3-carboxamide]
4 | ≥ 95 | ≥ 95 | < 79 | 80 to 89 | < 79 | ≥ 95 | < 79 | ≥ 95 | ≥ 95 | ≥ 95 | < 79 | ≥ 95 | ≥ 95 | CCOC(=O)Nc1cn2nc(Nc3cc(NC(=O)c4cc(S(C)(=O)=O)n(-c5ccc(F)cc5)n4)ccc3C)ccc2n1 [Ex15, ethyl (6-((5-(1-(4-fluorophenyl)-5-(methylsulfonyl)-1H-pyrazole-3-carboxamido)-2-methylphenyl)amino)imidazo[1,2-b]pyridazin-2-yl)carbamate]
5 | < 79 | < 79 | < 79 | < 79 | ≥ 95 | < 79 | < 79 | < 79 | < 79 | < 79 | < 79 | < 79 | < 79 | CNC(=O)c1cc(Oc2ccc(NC(=O)c3cc(S(C)(=O)=O)n(-c4ccc(F)cc4)n3)c(F)c2)ccn1 [Ex17, 4-(3-fluoro-4-(1-(4-fluorophenyl)-5-(methylsulfonyl)-1H-pyrazole-3-carboxamido)phenoxy)-N-methylpicolinamide]
6 | 80 to 89 | 80 to 89 | < 79 | < 79 | < 79 | 90 to 94 | < 79 | ≥ 95 | 80 to 89 | ≥ 95 | < 79 | ≥ 95 | < 79 | CCOC(=O)Nc1cn2nc(Nc3cc(NC(=O)c4cc([S+](C)[O-])n(-c5ccc(F)cc5)n4)ccc3C)ccc2n1 (stereo not drawn) [Ex18, ethyl (6-((5-(1-(4-fluorophenyl)-5-(methylsulfinyl)-1H-pyrazole-3-carboxamido)-2-methylphenyl)amino)imidazo[1,2-b]pyridazin-2-yl)carbamate]
